Consider 24 compounds from patent US12012410B2, “Substituted pyrazolo[1,5-a]pyrazines for spinal muscular atrophy” (REBORNA BIOSCIENCES, INC., priority 2018, dated 2024).

The assay concerns FL-SMN mRNA (SMN transcript containing exons 7 and 8). The assay can be described thus: Live-cell assay to measure changes in FL-SMN mRNA levels (qPCR) after exposure to the compounds. In kind it is cell-based, human. The following applies: fibroblasts derived from patients SMA (GM03813); 24 hours incubation. The procedure, abridged:
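SMA patient fibroblasts (GM03813) in DMEM/10% FBS were treated with compound (0.1% DMSO final) for 24 h. FL-SMN and Δ7 mRNA were measured by RT-qPCR against oligo DNA standard curves and normalised to GAPDH. Values are % of the DMSO control, binned by asterisk from ≥100% to ≥180%.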
On the technique in general: Quantitative PCR measures a nucleic acid by following its amplification.
With `Cc1cn2nc(-c3nc4c(C)cc(N5CCN(C)CC5)cc4c(=O)[nH]3)cc2c(C)n1` [Example 21, 2-(4,6-Dimethylpyrazolo[1,5-α]pyrazin-2-yl)-8-methyl-6-(4-methylpiperazin-1-yl)quinazolin-4(3H)-one], the “Percentage of increase (FL-SMN mRNA standardized against GAPDH, DMSO control set as 100%)” value was “**** (equal to or higher than 180%)”.

For `Cc1cn2cc(-c3ccc4nc(C5CCN(C)CC5)n(C)c(=O)c4c3)ccc2n1` [Example 69, 3-methyl-6-(2-methylimidazo[1,2-a]pyridin-6-yl)-2-(1-methylpiperidin-4-yl)quinazolin-4(3H)-one], the “Percentage of increase (FL-SMN mRNA standardized against GAPDH, DMSO control set as 100%)” value is on record as “** (equal to or higher than 120% but lower than 150%)”.

For the compound `CN1CCC(c2nc3ccc(-c4ccc(-c5cnn(C)c5)cc4)cc3c(=O)[nH]2)CC1` [Example 77, 2-(1-methylpiperidin-4-yl)-6-[4-(1-methyl-1H-pyrazol-4-yl)phenyl]quinazolin-4(3H)-one], the “Percentage of increase (FL-SMN mRNA standardized against GAPDH, DMSO control set as 100%)” value was “* (equal to or higher than 100% but lower than 120%)”.

`COc1cccc(-c2nc3ccc(C4CCN(C)CC4)cc3c(=O)[nH]2)c1F` [Example 47, 2-(2-fluoro-3-methoxyphenyl)-6-(1-methylpiperidin-4-yl)quinazolin-4(3H)-one]: the “Percentage of increase (FL-SMN mRNA standardized against GAPDH, DMSO control set as 100%)” value was “* (equal to or higher than 100% but lower than 120%)”.

On to `COCCN1CCN(c2ccc3nc(-c4cc5c(C)nc(C)cn5n4)[nH]c(=O)c3c2)CC1` [Example 82, 2-(4,6-dimethylpyrazolo[1,5-a]pyrazin-2-yl)-6-[4-(2-methoxyethyl)piperazin-1-yl]quinazolin-4(3H)-one], for which the “Percentage of increase (FL-SMN mRNA standardized against GAPDH, DMSO control set as 100%)” value was “** (equal to or higher than 120% but lower than 150%)”.

In the case of `Cc1cn2cc(-c3cc4c(=O)[nH]c(C5CCN(C)CC5)nc4cc3C)ccc2n1` [Example 62, 7-methyl-6-(2-methylimidazo[1,2-a]pyridin-6-yl)-2-(1-methylpiperidin-4-yl)quinazolin-4(3H)-one], the “Percentage of increase (FL-SMN mRNA standardized against GAPDH, DMSO control set as 100%)” value is “* (equal to or higher than 100% but lower than 120%)”.

Turning to `Cc1cn2cc(-c3ccc4nc(C5(F)CCN(C6CC6)CC5)[nH]c(=O)c4c3)cc(F)c2n1` [Example 85, 2-(4-fluoro-1-cyclopropylpiperidin-4-yl)-6-(8-fluoro-2-methylimidazo[1,2-a]pyridin-6-yl)quinazolin-4(3H)-one], the “Percentage of increase (FL-SMN mRNA standardized against GAPDH, DMSO control set as 100%)” value is “**** (equal to or higher than 180%)”.

For the compound `CCN1CCC(F)(c2nc3c(C)cc(-c4cc(F)c5nc(C)cn5c4)cc3c(=O)[nH]2)CC1` [Example 90, 2-(1-ethyl-4-fluoropiperidin-4-yl)-6-(8-fluoro-2-methylimidazo[1,2-a]pyridin-6-yl)-8-methylquinazolin-4(3H4)-one], the “Percentage of increase (FL-SMN mRNA standardized against GAPDH, DMSO control set as 100%)” value was “**** (equal to or higher than 180%)”.

As for `Cc1cn2cc(-c3ccc4nc(C5(F)CCN(CC(F)F)CC5)[nH]c(=O)c4c3)cc(F)c2n1` [Example 93, 2-[1-(2,2-difluoroethyl)-4-fluoropiperidin-4-yl]-6-(8-fluoro-2-methylimidazo[1,2-a]pyridin-6-yl)quinazolin-4(3H)-one], the “Percentage of increase (FL-SMN mRNA standardized against GAPDH, DMSO control set as 100%)” value was “*** (equal to or higher than 150% but lower than 180%)”.

Consider `Cc1cn2nc(-c3nc4ccc(N5CCNC(C)(C)C5)cc4c(=O)[nH]3)cc2c(C)n1` [Example 122, 6-(3,3-Dimethylpiperazin-1-yl)-2-(4,6-dimethylpyrazolo[1,5-a]pyrazin-2-yl)quinazolin-4(3H)-one bistrifluoroacetate], for which the “Percentage of increase (FL-SMN mRNA standardized against GAPDH, DMSO control set as 100%)” value was “**** (equal to or higher than 180%)”.

On to `Cc1cn2cc(-c3ccc4c(=O)n(C5CCN(C6CC6)CC5)cnc4c3)cc(F)c2n1` [Example 39, 3-(1-cyclopropylpiperidin-4-yl)-7-(8-fluoro-2-methylimidazo[1,2-a]pyridin-6-yl)quinazolin-4(3H)-one], for which the “Percentage of increase (FL-SMN mRNA standardized against GAPDH, DMSO control set as 100%)” value is on record as “*** (equal to or higher than 150% but lower than 180%)”.

Regarding `Cc1nc2c(F)cc(-c3ccc4c(=O)n(C5CCN(C6CC6)CC5)cnc4c3)cc2o1` [Example 34, 3-(1-cyclopropylpiperidin-4-yl)-7-(4-fluoro-2-methyl-1,3-benzoxazol-6-yl)quinazolin-4(3H)-one], the “Percentage of increase (FL-SMN mRNA standardized against GAPDH, DMSO control set as 100%)” value was “**** (equal to or higher than 180%)”.

Consider `Cc1nc2c(F)cc(-c3ccc4nc(C5CCN(C6CC6)CC5)[nH]c(=O)c4c3)cc2o1` [Example 27, 2-(1-cyclopropylpiperidin-4-yl)-6-(4-fluoro-2-methyl-1,3-benzoxazol-6-yl)quinazolin-4(3H)-one], for which the “Percentage of increase (FL-SMN mRNA standardized against GAPDH, DMSO control set as 100%)” value is “**** (equal to or higher than 180%)”.

For the compound `Cc1cn2ccc(-c3ccc4ncn(C5CCN(C)CC5)c(=O)c4c3)cc2n1` [Example 80, 6-(2-methylimidazo[1,2-a]pyridin-7-yl)-3-(1-methylpiperidin-4-yl)quinazolin-4(3H)-one], the “Percentage of increase (FL-SMN mRNA standardized against GAPDH, DMSO control set as 100%)” value is “* (equal to or higher than 100% but lower than 120%)”.

On to `Cc1cn2nc(-c3nc4ccc(N5CCN(C6CC6)CC5)cc4c(=O)[nH]3)ccc2n1` [Example 118, 6-(4-cyclopropylpiperazin-1-yl)-2-(2-methylimidazo[1,2-b]pyridazin-6-yl)quinazolin-4(3H)-one], for which the “Percentage of increase (FL-SMN mRNA standardized against GAPDH, DMSO control set as 100%)” value is recorded as “*** (equal to or higher than 150% but lower than 180%)”.

As for `Cc1nc(C)c2cc(-c3nc4ccc(N5CCN(C)CC5)cc4c(=O)[nH]3)nn2c1C` [Example 54, 6-(4-methylpiperazin-1 - yl)-2-(4,6,7-trimethylpyrazolo[1,5-a]pyrazin-2-yl)quinazolin-4(3H)-one], the “Percentage of increase (FL-SMN mRNA standardized against GAPDH, DMSO control set as 100%)” value is given as “* (equal to or higher than 100% but lower than 120%)”.

Take `CC[C@@H]1CN(C)CCN1c1ccc2nc(-c3cc4c(C)nc(C)cn4n3)[nH]c(=O)c2c1` [Example 132, (R)-2-(4,6-dimethylpyrazolo[1,5-a]pyrazin-2-yl)-6-(2-ethyl-4-methylpiperazin-1-yl)quinazolin-4(3H4)-one]: the “Percentage of increase (FL-SMN mRNA standardized against GAPDH, DMSO control set as 100%)” value was “*** (equal to or higher than 150% but lower than 180%)”.

`Cc1cn2cc(-c3ccc4nc(C5(F)CCN(C)CC5)[nH]c(=O)c4c3)cc(F)c2n1` [Example 86, 2-(4-fluoro-1-methylpiperidin-4-yl)-6-(8-fluoro-2-methylimidazo[1,2-a]pyridin-6-yl)quinazolin-4(3H)-one]: the “Percentage of increase (FL-SMN mRNA standardized against GAPDH, DMSO control set as 100%)” value is given as “*** (equal to or higher than 150% but lower than 180%)”.

Consider `Cc1cn2nc(-c3nc4ccc(N5CCN(C6CC6)CC5)cc4c(=O)[nH]3)cc2c(C)n1` [Example 36, 6-(4-cyclopropylpiperazin-1-yl)-2-(4,6-dimethylpyrazolo[1,5-a]pyrazin-2-yl)quinazolin-4(3H)-one], for which the “Percentage of increase (FL-SMN mRNA standardized against GAPDH, DMSO control set as 100%)” value was “**** (equal to or higher than 180%)”.

`Cc1cn2cc(-c3ccc4nc(C5CCN(C6CC6)CC5)[nH]c(=O)c4c3)cc2cn1` [Example 32, 2-(1-cyclopropylpiperidin-4-yl)-6-(3-methylpyrrolo[1,2-a]pyrazin-7-yl)quinazolin-4(3H)-one]: the “Percentage of increase (FL-SMN mRNA standardized against GAPDH, DMSO control set as 100%)” value is reported as “**** (equal to or higher than 180%)”.

With `COc1ccc(F)c(-c2nc3ccc(C4CCN(C)CC4)cc3c(=O)[nH]2)c1` [Example 49, 2-(2-fluoro-5-methoxyphenyl)-6-(1-methylpiperidin-4-yl)quinazolin-4(3H)-one], the “Percentage of increase (FL-SMN mRNA standardized against GAPDH, DMSO control set as 100%)” value was “* (equal to or higher than 100% but lower than 120%)”.

With `CC[C@H]1CN(C)CCN1c1ccc2nc(-c3cc4c(C)nc(C)cn4n3)[nH]c(=O)c2c1` [Example 129, (S)-2-(4,6-dimethylpyrazolo[1,5-a]pyrazin-2-yl)-6-(2-ethyl-4-methylpiperazin-1-yl)quinazolin-4(3H)-one], the “Percentage of increase (FL-SMN mRNA standardized against GAPDH, DMSO control set as 100%)” value is reported as “*** (equal to or higher than 150% but lower than 180%)”.

`Cc1nc2c(F)cc(-c3ccc4nc(C5CCN(C)CC5)[nH]c(=O)c4c3)cc2o1` [Example 18, 6-(4-Fluoro-2-methyl-1,3-benzoxazol-6-yl)-2-(1-methylpiperidin-4-yl)quinazolin-4(3H)-one]: the “Percentage of increase (FL-SMN mRNA standardized against GAPDH, DMSO control set as 100%)” value is recorded as “**** (equal to or higher than 180%)”.

Consider `COc1cnc(-c2nc3ccc(N4CCN(C)CC4)cc3c(=O)[nH]2)cc1C` [Example 76, 2-(5-methoxy-4-methylpyridin-2-yl)-6-(4-methylpiperazin-1-yl)quinazolin-4(3H)-one], for which the “Percentage of increase (FL-SMN mRNA standardized against GAPDH, DMSO control set as 100%)” value is listed as “* (equal to or higher than 100% but lower than 120%)”.
